In patent publication US20240315993A1, “ANTIPARASITIC COMPOUNDS” (Intervet Inc., priority 2021, published 2024):

How the values were obtained:
Lepeophtheirus salmonis [1] = test: Salmon - in vivo efficacy against sea lice using gavage administration; settings: po, 168 h, read-out: therapeutic efficacy against (pre-)adult sea lice (% reduction vs control), salmon, 5 mg/kg once by gavage, day -28 infestation, counted day 7
[2] = tested on: bed bugs (Cimex lectularius); test: Guinea pig - efficacy against bed bug; format: in vivo; settings: for effective to control bed bugs: 5 mg/kg, at least until Day 10, both administration routes (oral, subcutaneous)
How it was run: (§1)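 Guinea pigs given 5 mg/kg test compound orally (gavage) or s.c. in 10% DMF/emulsifier plus 90% water for injection, with local co-infestations of Ornithodoros moubata juveniles and Cimex lectularius at several post-treatment times. Engorged parasites scored dead/damaged about 24 h after collection; % inhibition versus pretreatment baseline by modified Schneider-Orelli formula.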

[3] = tested on: juvenile soft ticks (Ornithodoros moubata); test: Guinea pig - efficacy against argaside tick; format: in vivo; settings: for effective to control ticks: at least until Day 10, both administration routes (oral, subcutaneous)
How it was run: as §1

[4] = tested on: Copepodids (juvenile sea lice stage of Lepeophtheirus salmonis); test: Juvenile sea lice contact assay; settings: Lepeophtheirus salmonis, ~24 h, read-out: Sea lice inhibition (% of dead+damaged copepodids); for inhibition at 0.01 µM: 10 nM in seawater
Description: Copepodids (juvenile sea lice stage of Lepeophtheirus salmonis) were exposed to seawater spiked with declining concentrations of a test compound (dissolved in a DMSO sea-water mixture). Sea lice inhibition (% of dead+damaged copepodids) was assessed after approximately 24 hours of continuous exposure. The vitality of used parasites was confirmed in a negative (solvent) control group.

[5] = tested on: Mobile stages of sea lice (pre-adults, adults of Lepeophtheirus salmonis); test: Adult sea lice contact assay; settings: pre-adults/adults, assessed after ~1 and 24 h, read-out: EC50 (sea lice inhibition, dead+damaged)
Description: Mobile stages of sea lice (i.e., pre-adults, adults of Lepeophtheirus salmonis) were exposed to seawater spiked with declining concentrations of a test compound (dissolved in a PEG sea-water mixture). Sea lice inhibition (% of dead+damaged sea lice) was assessed after approximately 1 and 24 hours of continuous exposure in comparison to a negative (solvent) control group.

Lepeophtheirus salmonis [6] = test: Salmon - in vivo efficacy against sea lice using gavage administration; settings: 5 mg/kg once by gavage, counted around day 28; for therapeutic efficacy against juvenile sea lice (% reduction vs control): day -3 infestation
Description: Salmon (Salmo solar) were treated once orally by gavage at a dose of 5 mg/kg bodyweight per fish (Day 0). As formulation DMSO 5%/fish oil 95% was used. Salmon of the negative control group received only the excipients of the formulation.
The fish were infested with Lepeophtheirus salmonis copepodids twice before treatment (i.e., around day −28 and day −3) and once after treatment (i.e., day 17).
Around day 28 (end of animal phase), fish were euthanized, and lice on each fish were classified ((pre-)adult or juvenile stage) and counted. […] Efficacy is expressed as a % reduction of sea lice in treated groups versus a control group, using the Abbott's formula.

[7] = tested on: Rhipicephalus sanguineus or Haemaphysalis elliptica ticks; test: Dog - efficacy against ticks; format: in vivo; settings: for therapeutic efficacy against ticks (active = efficacy ≥80 percent): D2
Description: (§2) Beagle dogs were infested (whole body) with 80 Ctenocephalides felis fleas and 50 Rhipicephalus sanguineus or Haemaphysalis elliptica ticks (sex ratio 1:1) two days before the treatment day (Day 0), and repeatedly thereafter. Dogs of treatment groups were treated with 10 mg/kg bodyweight of a test compound orally (compound weighed in gelatin capsule), topically (spot-on, DMA 92%/DEET 8%) or subcutaneously (PEG 200 90%/water for injection 10%). Dogs of the negative control group received only an empty gelatin capsule orally and the spot-on formulation excipients topically.
(§3) Compounds with efficacy ≥80 percent were found active.

[8] = tested on: Ctenocephalides felis fleas; test: Dog - efficacy against fleas; format: in vivo; settings: for therapeutic efficacy against fleas (active = efficacy ≥80 percent): D2
Description: as §2, §3

Rhipicephalus microplus = test: Cattle - efficacy against one-host tick; format: in vivo; settings: 1 mg/kg pour on in Imwitor 988+Miglyol 840
Description: Cattle were infested (whole body) with up to 3000 Rhipicephalus microplus larvae two or three times per week before and after the treatment day (Day 0). Cattle of treatment groups were treated subcutaneously or topically (spray or pour-on) at a dose of 1 mg/kg bodyweight of a test compound. As subcutaneous formulation either 2-pyrrolidon 50%/Tween 80 50% or NMP 60%/PEG300 40% was used. As topical formulation either a spray solution (DMF/Emulsifier 2%/tap water 98%) (Compound 4) or a DMA 92%/DEET 8% pour-on solution (all other compounds) or a pour-on solution containing Imwitor 988 (20%)+Miglyol 840 (QS) (Compound 453 and Compound 466) or a pour-on solution containing Miglyol 840 (QS) (Compound 453) was used. Cattle of the negative control group received only the formulation excipients of the respective administration route.
Fully engorged female ticks dropping from cattle were collected daily after treatment and counted in treatment and control groups. Efficacy was expressed using the standard ADEQ analysis method (ADEQ calculation in accordance with WAAVP guidelines for evaluating the efficacy of acaricides against ticks on ruminants; Veterinary parasitology 136 (2006) 29-43). Compounds with efficacy ≥80 percent were found active/effective. Onset of efficacy means the first Day with efficacy ≥80 percent. Duration of efficacy means the last Day with efficacy ≥80 percent.

[9] = 5 mg/kg subcutaneous, after 7 days
[10] = 5 mg/kg subcutaneous, after 10 days

SMILES: O=C(Nc1c(F)cc(F)cc1F)c1cc(NC(=O)[C@H]2[C@H](c3cc(Cl)cc(Cl)c3)C2(Cl)Cl)ccc1Cl [Compound 449]
- inhibition in vivo at 5 mg/kg (Lepeophtheirus salmonis [1]): 80%
- activity against bed bugs (≥80% inhibition, killed+damaged) ([2]; 5 mg/kg oral, Day 0): immediate activity
- activity against bed bugs (≥80% inhibition, killed+damaged) ([2]; 5 mg/kg subcutaneous, Day 0): immediate activity
- activity against tick nymphs (≥80% inhibition, killed+damaged) ([3]; 5 mg/kg oral, Day 0): immediate activity
- activity against tick nymphs (≥80% inhibition, killed+damaged) ([3]; 5 mg/kg subcutaneous, Day 0): immediate activity
- activity against tick nymphs (≥80% inhibition, killed+damaged) [3, 9]: activity
- inhibition at 0.01 µM [4]: 100%
- EC50 [5]: 0.01 to 0.025 µM
- therapeutic efficacy against juvenile sea lice (% reduction vs control) (Lepeophtheirus salmonis [6]): 80%

SMILES: O=C(Nc1ccc(F)cc1F)c1cc(NC(=O)[C@H]2[C@H](c3cc(F)c(F)c(F)c3)C2(Cl)Cl)ccc1Cl [Compound 451]
- inhibition in vivo at 5 mg/kg (Lepeophtheirus salmonis [1]): 80%
- activity against bed bugs (≥80% inhibition, killed+damaged) ([2]; 5 mg/kg oral, Day 0): immediate activity
- activity against bed bugs (≥80% inhibition, killed+damaged) ([2]; 5 mg/kg oral, after 7 days): activity
- activity against bed bugs (≥80% inhibition, killed+damaged) ([2]; 5 mg/kg oral, after 10 days): activity
- activity against bed bugs (≥80% inhibition, killed+damaged) ([2]; 5 mg/kg subcutaneous, Day 0): immediate activity
- activity against bed bugs (≥80% inhibition, killed+damaged) [2, 9]: activity
- activity against bed bugs (≥80% inhibition, killed+damaged) [2, 10]: activity
- effective to control bed bugs [2]: 100%
- activity against tick nymphs (≥80% inhibition, killed+damaged) ([3]; 5 mg/kg oral, Day 0): immediate activity
- activity against tick nymphs (≥80% inhibition, killed+damaged) ([3]; 5 mg/kg oral, after 7 days): activity
- activity against tick nymphs (≥80% inhibition, killed+damaged) ([3]; 5 mg/kg oral, after 10 days): activity
- activity against tick nymphs (≥80% inhibition, killed+damaged) ([3]; 5 mg/kg subcutaneous, Day 0): immediate activity
- activity against tick nymphs (≥80% inhibition, killed+damaged) [3, 9]: activity
- activity against tick nymphs (≥80% inhibition, killed+damaged) [3, 10]: activity
- effective to control ticks ([3]; 5 mg/kg): 100%
- inhibition at 0.001 µM ([4]; 1 nM in seawater): 100%
- EC50 [5]: ≤ 0.01 µM

SMILES: O=C(Nc1cnc(F)cc1F)c1cc(NC(=O)[C@H]2[C@H](c3cc(Cl)cc(Cl)c3)C2(Cl)Cl)ccc1Cl [Compound 455]
- inhibition in vivo at 5 mg/kg (Lepeophtheirus salmonis [1]): 100%
- activity against bed bugs (≥80% inhibition, killed+damaged) ([2]; 5 mg/kg oral, Day 0): immediate activity
- activity against bed bugs (≥80% inhibition, killed+damaged) ([2]; 5 mg/kg subcutaneous, Day 0): immediate activity
- activity against tick nymphs (≥80% inhibition, killed+damaged) ([3]; 5 mg/kg oral, Day 0): immediate activity
- activity against tick nymphs (≥80% inhibition, killed+damaged) ([3]; 5 mg/kg subcutaneous, Day 0): immediate activity
- duration of efficacy, subcutaneous compared with oral administration ([3]; 5 mg/kg, ticks and bed bugs): longer duration of efficacy
- inhibition at 0.01 µM [4]: 100%
- EC50 [5]: ≤ 0.01 µM
- therapeutic efficacy against juvenile sea lice (% reduction vs control) (Lepeophtheirus salmonis [6]): 100%

SMILES: O=C(Nc1c(F)ccnc1F)c1cc(NC(=O)[C@H]2[C@H](c3cc(Cl)cc(Cl)c3)C2(Cl)Cl)ccc1Cl [Compound 456]
- inhibition in vivo at 5 mg/kg (Lepeophtheirus salmonis [1]): 80%
- activity against bed bugs (≥80% inhibition, killed+damaged) ([2]; 5 mg/kg oral, Day 0): immediate activity
- activity against bed bugs (≥80% inhibition, killed+damaged) ([2]; 5 mg/kg subcutaneous, Day 0): immediate activity
- activity against tick nymphs (≥80% inhibition, killed+damaged) ([3]; 5 mg/kg oral, Day 0): immediate activity
- activity against tick nymphs (≥80% inhibition, killed+damaged) ([3]; 5 mg/kg subcutaneous, Day 0): immediate activity
- inhibition at 0.01 µM [4]: 100%
- EC50 [5]: ≤ 0.01 µM
- prophylactic efficacy at re-infestation on Day 17 (% reduction vs control) (Lepeophtheirus salmonis [6]): 80%
- therapeutic efficacy against juvenile sea lice (% reduction vs control) (Lepeophtheirus salmonis [6]): 100%

SMILES: O=C(Nc1ncc(F)cn1)c1cc(NC(=O)[C@H]2[C@H](c3cc(Cl)cc(Cl)c3)C2(Cl)Cl)ccc1Cl [Compound 460]
- inhibition in vivo at 5 mg/kg (Lepeophtheirus salmonis [1]): 100%
- activity against bed bugs (≥80% inhibition, killed+damaged) ([2]; 5 mg/kg oral, Day 0): immediate activity
- activity against bed bugs (≥80% inhibition, killed+damaged) ([2]; 5 mg/kg oral, after 7 days): activity
- activity against bed bugs (≥80% inhibition, killed+damaged) ([2]; 5 mg/kg subcutaneous, Day 0): immediate activity
- activity against bed bugs (≥80% inhibition, killed+damaged) [2, 9]: activity
- activity against tick nymphs (≥80% inhibition, killed+damaged) ([3]; 5 mg/kg oral, Day 0): immediate activity
- activity against tick nymphs (≥80% inhibition, killed+damaged) ([3]; 5 mg/kg subcutaneous, Day 0): immediate activity
- inhibition at 0.01 µM [4]: 100%
- EC50 [5]: ≤ 0.01 µM
- therapeutic efficacy against juvenile sea lice (% reduction vs control) (Lepeophtheirus salmonis [6]): 100%

SMILES: O=C(Nc1cnc(F)cc1F)c1cc(NC(=O)[C@H]2[C@H](c3cc(Cl)c(Cl)c(Cl)c3)C2(Cl)Cl)ccc1Cl [Compound 466]
- inhibition in vivo at 5 mg/kg (Lepeophtheirus salmonis [1]): 80%
- activity against bed bugs (≥80% inhibition, killed+damaged) ([2]; 5 mg/kg oral, Day 0): immediate activity
- activity against bed bugs (≥80% inhibition, killed+damaged) ([2]; 5 mg/kg oral, after 7 days): activity
- activity against bed bugs (≥80% inhibition, killed+damaged) ([2]; 5 mg/kg oral, after 10 days): activity
- activity against bed bugs (≥80% inhibition, killed+damaged) ([2]; 5 mg/kg oral, after 14 days): activity
- activity against bed bugs (≥80% inhibition, killed+damaged) ([2]; 5 mg/kg oral, after 17 days): activity
- activity against bed bugs (≥80% inhibition, killed+damaged) ([2]; 5 mg/kg subcutaneous, Day 0): immediate activity
- activity against bed bugs (≥80% inhibition, killed+damaged) [2, 9]: activity
- activity against bed bugs (≥80% inhibition, killed+damaged) [2, 10]: activity
- activity against bed bugs (≥80% inhibition, killed+damaged) ([2]; 5 mg/kg subcutaneous, after 14 days): activity
- activity against bed bugs (≥80% inhibition, killed+damaged) ([2]; 5 mg/kg subcutaneous, after 17 days): activity
- effective to control bed bugs [2]: 100%
- activity against tick nymphs (≥80% inhibition, killed+damaged) ([3]; 5 mg/kg oral, Day 0): immediate activity
- activity against tick nymphs (≥80% inhibition, killed+damaged) ([3]; 5 mg/kg oral, after 7 days): activity
- activity against tick nymphs (≥80% inhibition, killed+damaged) ([3]; 5 mg/kg oral, after 10 days): activity
- activity against tick nymphs (≥80% inhibition, killed+damaged) ([3]; 5 mg/kg oral, after 14 days): activity
- activity against tick nymphs (≥80% inhibition, killed+damaged) ([3]; 5 mg/kg subcutaneous, Day 0): immediate activity
- activity against tick nymphs (≥80% inhibition, killed+damaged) [3, 9]: activity
- effective to control ticks ([3]; 5 mg/kg): 100%
- inhibition at 0.1 µM ([4]; 100 nM in seawater): 100%
- EC50 [5]: ≤ 0.01 µM
- therapeutic efficacy against juvenile sea lice (% reduction vs control) (Lepeophtheirus salmonis [6]): 80%
- efficacy against ticks in dogs (conclusion) ([7]; 10 mg/kg): therapeutic efficacy
- therapeutic efficacy against ticks (active = efficacy ≥80 percent) ([7]; 10 mg/kg oral): active
- therapeutic efficacy against ticks (active = efficacy ≥80 percent) ([7]; 10 mg/kg topical spot-on): active
- efficacy against fleas in dogs (conclusion) ([8]; 10 mg/kg): therapeutic efficacy
- therapeutic efficacy against fleas (active = efficacy ≥80 percent) ([8]; 10 mg/kg oral): active
- therapeutic efficacy against fleas (active = efficacy ≥80 percent) ([8]; 10 mg/kg topical spot-on): active
- duration of efficacy (last Day with efficacy ≥80 percent) (Rhipicephalus microplus): 87 days
- onset of efficacy (first Day with efficacy ≥80 percent) (Rhipicephalus microplus): 1 days
